# Experimental data published in publication PMC9518246, “Design and synthesis of new indole drug candidates to treat Alzheimer’s disease and targeting neuro-inflammation using a multi-target-directed ligand (MTDL) strategy” (Journal of Enzyme Inhibition and Medicinal Chemistry, 2022).
# Values joined by “and” are separate entries in the source; they are usually repeats but may differ in a detail not shown here. Equal entries are not always repeated.
# Assays:
# AChE = AChE (Homo sapiens, UniProt P22303); assay: biochemical; conditions: for IC50: modified Ellman, read-out: AChE inhibitory activity IC50
# Sequence of AChE (P22303 32-614): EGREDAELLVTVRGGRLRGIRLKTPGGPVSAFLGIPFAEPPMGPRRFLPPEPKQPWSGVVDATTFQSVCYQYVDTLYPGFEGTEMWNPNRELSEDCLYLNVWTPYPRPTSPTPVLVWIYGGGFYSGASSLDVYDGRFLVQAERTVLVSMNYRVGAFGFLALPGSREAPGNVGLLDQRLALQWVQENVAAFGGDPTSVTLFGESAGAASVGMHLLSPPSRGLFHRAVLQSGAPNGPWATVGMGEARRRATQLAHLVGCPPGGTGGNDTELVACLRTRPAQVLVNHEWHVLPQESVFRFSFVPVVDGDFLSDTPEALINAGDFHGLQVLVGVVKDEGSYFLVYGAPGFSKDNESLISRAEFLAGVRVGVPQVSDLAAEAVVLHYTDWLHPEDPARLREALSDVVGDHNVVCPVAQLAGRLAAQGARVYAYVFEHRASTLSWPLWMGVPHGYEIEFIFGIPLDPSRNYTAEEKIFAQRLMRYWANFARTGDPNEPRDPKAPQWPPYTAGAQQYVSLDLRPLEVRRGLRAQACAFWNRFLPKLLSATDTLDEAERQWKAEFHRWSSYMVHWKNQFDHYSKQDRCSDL
# Protocol: (§1) The effects of twenty synthetic compounds were evaluated for AChE and BuChE inhibition using the modified method of Ellman et al.[33] […] AChE and BuChE are found in the brains of mammals. Genetically, structurally, and kinetically, the two kinds vary. In the human brain, BuChE is found in glial cells and neurons as well as in plaques and tangles in AD patients. […] BuChE may replace AChE by hydrolysing brain acetylcholine in some conditions, such as in mice nullizygote for AChE or in AD patients in advanced stages of the disease[34]^,[35].
# BuChE = BuChE (Homo sapiens, UniProt P06276); assay: biochemical; conditions: modified Ellman; read-out: BuChE inhibitory activity IC50
# Sequence of BuChE (P06276 29-602): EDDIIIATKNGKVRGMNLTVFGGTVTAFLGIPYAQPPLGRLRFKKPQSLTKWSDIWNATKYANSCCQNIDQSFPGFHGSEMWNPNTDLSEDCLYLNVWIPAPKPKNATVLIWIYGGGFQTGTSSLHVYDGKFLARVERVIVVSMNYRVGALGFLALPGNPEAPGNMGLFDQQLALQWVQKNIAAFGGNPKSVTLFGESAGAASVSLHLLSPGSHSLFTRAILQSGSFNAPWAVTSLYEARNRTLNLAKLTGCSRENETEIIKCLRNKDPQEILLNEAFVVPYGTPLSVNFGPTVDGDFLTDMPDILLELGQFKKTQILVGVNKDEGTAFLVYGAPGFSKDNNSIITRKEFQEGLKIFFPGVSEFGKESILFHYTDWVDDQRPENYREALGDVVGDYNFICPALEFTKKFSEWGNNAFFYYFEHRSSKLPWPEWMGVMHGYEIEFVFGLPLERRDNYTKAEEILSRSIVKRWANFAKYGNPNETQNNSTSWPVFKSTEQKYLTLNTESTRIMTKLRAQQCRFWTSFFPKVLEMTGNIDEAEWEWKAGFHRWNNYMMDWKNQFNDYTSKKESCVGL
# Protocol: as §1
# Aβ1–42 = target: T1, Aβ1–42 (Homo sapiens, UniProt P05067); assay: Inhibition of Aβ1-42 self-induced aggregation (BioVision ligand screening kit); type: biochemical; conditions: µM
# T1 construct: purchased BioVision K570-100
# T1 sequence (P05067 672-713 limits assumed): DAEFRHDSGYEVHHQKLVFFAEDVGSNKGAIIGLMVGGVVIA
# Description: Screening Aβ42 ligands that could prevent aggregation is critical for developing potential therapeutic treatments. In BioVision’s Beta-Amyloid 1–42 (Aβ42) Ligand Screening kit, a dye binds to the beta-sheets of an aggregated amyloid peptide resulting in an intense fluorescent product at wave length 450 nm using a BIOLINE ELISA reader. In the presence of an Aβ42 ligand, this reaction is impeded/abolished resulting in a decrease or total loss of fluorescence. This assay is useful in screening Aβ42 ligands for developing potential therapeutic agents against AD[42]. The assessment was performed according to BioVision’s Beta-Amyloid 1–42 (Aβ42) Ligand Screening Kit Catalog No. K570-100.
Compound,IC50 (AChE) [µM],IC50 (BuChE),IC50 (Aβ1–42) [µM],"AChE inhibition in words, compared to reference drugs (tacrine and donepezil) (AChE)",other results
"CS(=O)(=O)n1cc(C=C(C(=O)N2CCC(Cc3ccccc3)CC2)c2ccc(Cl)cc2)c2ccccc21 [Compound 4d, (E)-1–(4-Benzylpipridin-1-yl)-2–(4-chlorophenyl)-3-[1-(methylsulfonyl)-1H-indol-3-yl]prop-2-en-1-one]",0.132 to 0.164,0.0417 to 0.0741 µM and 0.0369 to 0.0804 µM,8.76,,
"CS(=O)(=O)n1cc(/C=N/NC(=O)c2sc(=S)n(-c3ccccc3)c2N)c2ccccc21 [Compound 10b, (E)-4-Amino-N'-{[1-(methylsulfonyl)-1H-indol-3-yl]methylene}-3-phenyl-2-thioxo-2,3-dihydrothiazole-5-carbohydrazide]",0.0645,0.0474 µM,5.16,,
CS(=O)(=O)n1cc(/C=C(/C(=O)O)c2ccccc2)c2ccccc21,,,,,melting point: 181 to 183 °C
"COc1ccc(-c2c(C#N)c(N)n(/N=C/c3cn(S(C)(=O)=O)c4ccccc34)c(=O)c2C#N)cc1 [Compound 9a, (E)-6-Amino-4-(4-methoxyphenyl)-1-{[(1-(methylsulfonyl)-1H-indol-3-yl)methylene]amino}-2-oxo-1,2-dihydropyridine-3,5-dicarbonitrile]",,,,less activity,
"COc1cc(/C(=C\c2cn(S(C)(=O)=O)c3ccccc23)C(=O)O)cc(OC)c1OC [Compound 3c, (E)-3-[1-(Methylsulfonyl)-1H-indol-3-yl]-2–(3,4,5-trimethoxyphenyl)acrylic acid]",0.0411,0.117 µM,6.91,,
"CCn1c(N)c(C(=O)N/N=C/c2cn(S(C)(=O)=O)c3ccccc23)sc1=S [Compound 10a, (E)-4-Amino-3-ethyl-N'-{[1-(methylsulfonyl)-1H-indol-3-yl]methylene}-2-thioxo-2,3-dihydrothiazole-5-carbohydrazide]",,,,less activity,
"CS(=O)(=O)n1cc(/C=N/NC(=O)Cc2ccc(Cl)cc2)c2ccccc21 [Compound 7c, (E)-2–(4-Chlorophenyl)-N'-{[1-(methylsulfonyl)-1H-indol-3-yl]methylene}acetohydrazide]",0.0891,0.076 µM,14.9,,
"CS(=O)(=O)n1cc(/C=C(/C(=O)Nc2cccnc2)c2ccc(Cl)cc2)c2ccccc21 [Compound 4b, (E)-2–(4-Chlorophenyl)-3-[1-(methylsulfonyl)-1H-indol-3-yl]-N-(pyridin-3-yl)acrylamide]",0.132 to 0.164,0.0417 to 0.0741 µM and 0.0369 to 0.0804 µM,13.8,,
"CS(=O)(=O)n1cc(/C=C/C(=O)c2ccc(NC(=O)Cc3ccccc3)cc2)c2ccccc21 [Compound 5a, (E)-N-{4-[3–(1-(methylsulfonyl)-1H-indol-3-yl)acryloyl]phenyl}-2-phenylacetamide]",,,,less activity,
"CS(=O)(=O)n1cc(/C=N/NC(=O)Cc2ccccc2)c2ccccc21 [Compound 7b, (E)-N'-{[1-(Methylsulfonyl)-1H-indol-3-yl]methylene}-2-phenylacetohydrazide]",,,,less activity,
"COc1ccc(-c2c(C#N)c(N)n(/N=C/c3cn(S(C)(=O)=O)c4ccccc34)c(=O)c2C#N)cc1OC [Compound 9b, (E)-6-Amino-4–(3,4-dimethoxyphenyl)-1-{[(1-(methylsulfonyl)-1H-indol-3-yl)methylene]amino}-2-oxo-1,2-dihydropyridine-3,5-dicarbonitrile]",,,,less activity,
"CS(=O)(=O)n1cc(/C=C(\C(=O)N2CCCCC2)c2ccc(Cl)cc2)c2ccccc21 [Compound 4a, (E)-2–(4-Chlorophenyl)-3-[1-(methylsulfonyl)-1H-indol-3-yl]-1-(pipridin-1-yl)prop-2-en-1-one]",0.132 to 0.164,0.0417 to 0.0741 µM and 0.0369 to 0.0804 µM,22.4,,
"CS(=O)(=O)n1cc(/C=C(\C(=O)N2CCN(c3ncccn3)CC2)c2ccc(Cl)cc2)c2ccccc21 [Compound 4c, (E)-2–(4-Chlorophenyl)-3-[1-(methylsulfonyl)-1H-indol-3-yl]-1-[4-(pyrimidin-2-yl)piprazin-1-yl]prop-2-en-1-one]",,,,less activity,
COc1cc(CC(=O)Nc2ccc(C(=O)/C=C/c3cn(S(C)(=O)=O)c4ccccc34)cc2)cc(OC)c1OC,,,,,melting point: 176 to 178 °C
CS(=O)(=O)n1cc(/C=N/NC(=O)c2ccccc2)c2ccccc21,,,,,melting point: 114 to 116 °C
"CS(=O)(=O)n1cc(/C=C/C(=O)c2cccc(NC(=O)CN3CCC(Cc4ccccc4)CC3)c2)c2ccccc21 [Compound 6a, (E)-2–(4-Benzylpiperidin-1-yl)-N-{3-[3–(1-(methylsulfonyl)-1H-indol-3-yl)acryloyl]phenyl}acetamide]",,,,less activity,
COc1cc(-c2c(C#N)c(N)n(/N=C/c3cn(S(C)(=O)=O)c4ccccc34)c(=O)c2C#N)cc(OC)c1OC,,,,,melting point: 210 to 212 °C
"CS(=O)(=O)n1cc(/C=C(/C(=O)O)c2ccc(Cl)cc2)c2ccccc21 [Compound 3b, (E)-2–(4-Chlorophenyl)-3-[1-(methylsulfonyl)-1H-indol-3-yl]acrylic acid]",,,,less activity,
